Measurements as given in patent US20220281848A1, “PYRAZOLE-SUBSTITUTED PYRROLIDINONES AS HERBICIDES” (FMC Corporation, priority 2019, published 2022).

Columns and labels:
Assay type in all cases: in vivo
[1] = tested on: giant foxtail (Setaria faberi, SETFA); assay: Test A pre-emergence, giant foxtail; conditions: after 13 d
Method in brief: (§1)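 Pots of soil sown, sprayed at day 1 post-sowing: test compound at 15.625/62.5/250 g/ha in acetone:water 1:1 + 0.5% Tween 20. Glasshouse 24/16° C., 14 h light, 65% RH, watering twice daily. Readout: % damage after 13 d.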

[2] = tested on: giant foxtail (Setaria faberi, SETFA); assay: Test A post-emergence, giant foxtail; conditions: after 13 d
Method in brief: (§2)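 Visual damage at 13 d after treatment, rated from 0 (no damage) to 100 (total damage). Eight-day-old pot-grown plants had been sprayed with 15.625, 62.5 or 250 g/ha of compound in aqueous acetone (50:50) containing 0.5% Tween 20.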

wheat = assay: Test D pre-emergence, wheat seed treated with a herbicide safener; conditions: 100=total damage, 0=no damage
Experimental: (§3) A formulation containing 50 g/L of the test chemical was prepared by dissolving the active ingredient in a mixture of organic solvents and emulsifier, details of which are provided in the table. This formulation was then mixed with a small, variable amount of acetone to aid dissolution, before addition of a 0.2% v/v aqueous solution of an adjuvant, as the aqueous diluent, to form an aqueous spray solution which contains a predetermined concentration of the active ingredient.
(§4) This aqueous spray solution was then sprayed onto plants including maize and wheat that had been seed treated with a herbicide safener, after one day's cultivation (for pre-emergence) or after about 12 days' cultivation (for post-emergence). The plants were grown from seeds sown in standard soil, placed in a glasshouse under controlled conditions (at 24/18° C. or 20/16° C., day/night; 16 h light; 65% humidity). After spray application the plants were then grown in a glasshouse under the same conditions and watered twice daily. After 15 d for post-emergence and 20 DAA for pre-emergence the test was evaluated (100=total damage to plant; 0=no damage to plant).

[3] = tested on: velvetleaf (Abutilon theophrasti, ABUTH); assay: Test A post-emergence, velvetleaf; conditions: after 13 d
Method in brief: as §2

corn (Zea mays, ZEAMX) = assay: Test A pre-emergence, corn; conditions: after 13 d
Method in brief: as §1

[4] = tested on: barnyardgrass (Echinochloa crus-galli, ECHCG); assay: Test A post-emergence, barnyardgrass; conditions: after 13 d
Method in brief: as §2

maize = assay: Test D pre-emergence, maize seed treated with a herbicide safener; conditions: preemergent; for damage to plant (100=total damage to plant; 0=no damage to plant), ZEAMX: 20 DAA; for ZEAMX damage to plant (100=total damage; 0=no damage): safener-treated seed
Experimental: as §3, §4

[5] = tested on: ivy-leaved morning glory (Ipomoea hederacea, IPOHE); assay: Test A post-emergence, ivy-leaved morning glory; conditions: after 13 d
Method in brief: as §2

[6] = tested on: redroot pigweed (Amaranthus retroflexus, AMARE); assay: Test A post-emergence, redroot pigweed; conditions: after 13 d
Method in brief: as §2

[7] = tested on: redroot pigweed (Amaranthus retroflexus, AMARE); assay: Test A pre-emergence, redroot pigweed; conditions: after 13 d
Method in brief: as §1

Structure (SMILES) | damage to plant (100=total damage; 0=no damage) SETFA ([1]; Pre-Emergence at 15.625 g/ha) | damage to plant (100=total damage; 0=no damage) SETFA ([1]; Pre-Emergence at 62.5 g/ha) | damage to plant (100=total damage; 0=no damage) SETFA ([1]; Pre-Emergence at 250 g/ha) | damage to plant (100=total damage; 0=no damage) SETFA ([2]; Post-Emergence at 15.625 g/ha) | damage to plant (100=total damage; 0=no damage) SETFA ([2]; Post-Emergence at 62.5 g/ha) | damage to plant (100=total damage; 0=no damage) SETFA ([2]; Post-Emergence at 250 g/ha) | damage to plant, TRZAW (wheat; rate 60, 20 DAA) | damage to plant, TRZAW (wheat; rate 130, 20 DAA) | damage to plant, TRZAW (wheat; rate 250, 20 DAA) | damage to plant, TRZAW (wheat; rate 500, 20 DAA) | damage to plant (100=total damage; 0=no damage) ABUTH ([3]; Post-Emergence at 15.625 g/ha) | damage to plant (100=total damage; 0=no damage) ABUTH ([3]; Post-Emergence at 62.5 g/ha) | damage to plant (100=total damage; 0=no damage) ABUTH ([3]; Post-Emergence at 250 g/ha) | damage to plant (100=total damage; 0=no damage) ZEAMX (corn (Zea mays, ZEAMX); Pre-Emergence at 15.625 g/ha) | damage to plant (100=total damage; 0=no damage) ZEAMX (corn (Zea mays, ZEAMX); Pre-Emergence at 62.5 g/ha) | damage to plant (100=total damage; 0=no damage) ZEAMX (corn (Zea mays, ZEAMX); Pre-Emergence at 250 g/ha) | damage to plant (100=total damage; 0=no damage) ECHCG ([4]; Post-Emergence at 15.625 g/ha) | damage to plant (100=total damage; 0=no damage) ECHCG ([4]; Post-Emergence at 62.5 g/ha) | damage to plant (100=total damage; 0=no damage) ECHCG ([4]; Post-Emergence at 250 g/ha) | damage to plant (100=total damage; 0=no damage) IPOHE ([5]; Post-Emergence at 15.625 g/ha) | also measured
CN1CC(c2cnn(C)c2C(F)(F)F)C(C(=O)Nc2cccc(F)c2F)C1=O (racemic) [Compound 25] | 80 | 90 | 100 | 30 | 70 | 80 | 0 | 0 | 0 | 0 | 0 | 0 | 0 | 0 | 0 | 20 | 30 | 70 | 80 | 10 | damage to plant, TRZAW (wheat; rate 15, 20 DAA): 0; damage to plant, TRZAW (wheat; rate 30, 20 DAA): 0; damage to plant (100=total damage to plant; 0=no damage to plant), ZEAMX (maize; rate 15): 0; damage to plant (100=total damage to plant; 0=no damage to plant), ZEAMX (maize; rate 30): 0; damage to plant (100=total damage to plant; 0=no damage to plant), ZEAMX (maize; rate 60): 0; damage to plant (100=total damage to plant; 0=no damage to plant), ZEAMX (maize; rate 130): 0; damage to plant (100=total damage to plant; 0=no damage to plant), ZEAMX (maize; rate 250): 0; damage to plant (100=total damage to plant; 0=no damage to plant), ZEAMX (maize; rate 500): 0; damage to plant (100=total damage; 0=no damage) IPOHE ([5]; Post-Emergence at 62.5 g/ha): 40; damage to plant (100=total damage; 0=no damage) IPOHE ([5]; Post-Emergence at 250 g/ha): 40; damage to plant (100=total damage; 0=no damage) AMARE ([6]; Post-Emergence at 15.625 g/ha): 0; damage to plant (100=total damage; 0=no damage) AMARE ([6]; Post-Emergence at 62.5 g/ha): 0; damage to plant (100=total damage; 0=no damage) AMARE ([6]; Post-Emergence at 250 g/ha): 0; damage to plant (100=total damage; 0=no damage) AMARE ([7]; Pre-Emergence at 15.625 g/ha): 0; damage to plant (100=total damage; 0=no damage) AMARE ([7]; Pre-Emergence at 62.5 g/ha): 0; damage to plant (100=total damage; 0=no damage) AMARE ([7]; Pre-Emergence at 250 g/ha): 0
CN1CC(c2cc(Cl)n(C)n2)C(C(=O)Nc2ccc(F)c(F)c2F)C1=O (racemic) [Compound 31] | 40 | 80 | 80 | 40 | 80 | 80 | 0 | 0 | 0 | 0 | 0 | 0 | 0 | 0 | 10 | 20 | 50 | 80 | 80 | 20 | TRZAW damage rating (wheat; Rates 15, 20 DAA): 0; TRZAW damage rating (wheat; Rates 30, 20 DAA): 0; ZEAMX damage to plant (100=total damage; 0=no damage) (maize; Rates 15, 20 DAA): 0; ZEAMX damage to plant (100=total damage; 0=no damage) (maize; Rates 30, 20 DAA): 0; ZEAMX damage to plant (100=total damage; 0=no damage) (maize; Rates 60, 20 DAA): 0; ZEAMX damage to plant (100=total damage; 0=no damage) (maize; Rates 130, 20 DAA): 0; ZEAMX damage to plant (100=total damage; 0=no damage) (maize; Rates 250, 20 DAA): 0; ZEAMX damage to plant (100=total damage; 0=no damage) (maize; Rates 500, 20 DAA): 0; damage to plant (100=total damage; 0=no damage) IPOHE ([5]; Post-Emergence at 62.5 g/ha): 30; damage to plant (100=total damage; 0=no damage) IPOHE ([5]; Post-Emergence at 250 g/ha): 40; damage to plant (100=total damage; 0=no damage) AMARE ([6]; Post-Emergence at 15.625 g/ha): 0; damage to plant (100=total damage; 0=no damage) AMARE ([6]; Post-Emergence at 62.5 g/ha): 10; damage to plant (100=total damage; 0=no damage) AMARE ([6]; Post-Emergence at 250 g/ha): 20; damage to plant (100=total damage; 0=no damage) AMARE ([7]; Pre-Emergence at 15.625 g/ha): 0; damage to plant (100=total damage; 0=no damage) AMARE ([7]; Pre-Emergence at 62.5 g/ha): 0; damage to plant (100=total damage; 0=no damage) AMARE ([7]; Pre-Emergence at 250 g/ha): 0
